Experimental data as given in patent publication US20240199676A1, “ANTIVIRAL COMPOUNDS AND METHODS OF MAKING AND USING THE SAME” (Gilead Sciences, Inc., priority 2022, published 2024).
Like-named read-outs stand apart in the source and are kept apart here.

Columns and labels:
Format in all cases: cell-based
[1] = system: Respiratory syncytial virus recombinant with luciferase (RSV-Luc5) in HEp-2 cells; test: HEp-2 RSV-Luc5 384-well Assay (EC50 RSVFLUC Hep2-384 v2, Ex. V); conditions: human respiratory syncytial virus, HEp-2, 72 h, read-out: EC50 RSV FLuc Hep-2 384 V2 (per Ex. V)
Procedure, shortened: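 HEp-2 cells (4,000/well) with 10-point 1:3 compound dilutions were infected with RSV-Luc5 at MOI 0.5 and incubated 3 days at 37 °C. Replication was read by One-Glo luminescence and normalized to remdesivir (0%) and DMSO (100%) controls. EC50 is the concentration reducing replication by 50%, from non-linear regression.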

[2] = system: Human Rhinovirus 14 (HRV14) in H1-HeLa cells; test: H1-HeLa HRV-CTG 384-well Assay (Ex. Y), HRV14; conditions: Rhinovirus B, 96 h, read-out: EC50 H1-HeLa_HRV14_HRV-CTG 384-well Assay (per Ex Y)
Description: (§1) Example Y: H1-HeLa HRV-CTG 384-well Assay
(§2) H1-Hela cell line (ATCC, Manassas, VA, Cat #CRL-1958) was maintained in Dulbecco's […] (DMEM) (Corning, New York, NY, Cat #15-018CM) supplemented with 10% fetal bovine serum (FBS) (Hyclone, Logan, UT, Cat #SH30071-03), and 1× Penicillin-Streptomycin-L-Glutamine (Corning, New York, NY, Cat #30-009-CI). Cells were passaged 2 times per week to maintain sub-confluent densities and were used for experiments at passage 5-30. The Human Rhinovirus 1B (HRV1B) (ATCC, Manassas, VA, Cat #VR-1645) , Human Rhinovirus 14 (HRV14) (ATCC, Manassas, VA, Cat #VR-284), and Human Rhinovirus 16 (HRV16) (ATCC, Manassas, VA, Cat #BR-283) was obtained through ATCC. Viral infection was monitored by determining viability of H1-HeLa cells as described below.
(§3) Test molecules are prepared in 100% DMSO in 384-well polypropylene plates (Greiner, Monroe, NC, Cat #784201) with 8 compounds per plate in grouped replicates of 4 at 10 serially diluted concentrations (1:3). The serially diluted compounds were transferred to low dead volume Echo plates (Labcyte, Sunnyvale, CA, Cat #LP-0200).
(§4) The test compounds were spotted to 384-well assay plates (Greiner, Monroe, NC, Cat#781091) at 200 nL per well using an Echo acoustic dispenser (Labcyte, Sunnyvale, CA). H1-HeLa cells were harvested and suspended in DMEM (supplemented with 2% FBS and 1× Penicillin-Streptomycin-L-Glutamine) and seeded to the pre-spotted assay plates at 5,000 cells per well in 30 μL. HRV1B, HRV14, and HRV16 was diluted in DMEM (supplemented with 2% FBS and 1× Penicillin-Streptomycin-L-Glutamine) at 97.1 million Infectious Units (IU) per mL, 151 million IU per mL and 221 million IU per mL respectively. 10 μL of virus per well was added to the assay plates containing cells and compounds, for an MOI of 0.5, 1.0, and 0.25 respectively. The assay plates were incubated for 4 days at 37° C. and 5% CO2. At the end of incubation, Celltiter-Glo (Promega, Madison, WI, Cat #(Ga7573) was prepared. The assay plates and Celltiter-Glo reagent were equilibrated to room temperature for at least 15 minutes. 40 μL per well of Celltiter-Glo reagent was added and the plates were incubated at room temperature for 15 minutes before reading the luminescence signal on an EnVision multimode plate reader (Perkin Elmer, Waltham, MA). Rupintrivir was used as positive control and DMSO was used as negative control. Values were normalized to the positive and negative controls (as 0% and 100% replication, respectively) and data was fitted using non-linear regression analysis by Gilead's dose response tool. The EC50 value for each compound was defined as the concentration reducing viral replication by 50%.

[3] = system: Human Rhinovirus 1B (HRV1B) in H1-HeLa cells; test: H1-HeLa HRV-CTG 384-well Assay (Ex. Y), HRV1B; conditions: Rhinovirus A, 96 h, read-out: EC50 H1-HeLa_HRV1B_HRV-CTG 384-well Assay (per Ex. Y)
Description: as §1, §2, §3, §4

[4] = system: Human Rhinovirus 16 (HRV16) in H1-HeLa cells; test: H1-HeLa HRV-CTG 384-well Assay (Ex. Y), HRV16; conditions: Rhinovirus A, 96 h, read-out: EC50 H1-HeLa_HRV16_HRV-CTG 384-well Assay (per Ex. Y)
Description: as §1, §2, §3, §4

[5] = H1-HeLa cells, HRV14 MOI 1.0, 4 days, Celltiter-Glo
[6] = H1-HeLa cells, HRV1B MOI 0.5, 4 days, Celltiter-Glo
[7] = H1-HeLa cells, HRV16 MOI 0.25, 4 days, Celltiter-Glo

N#C[C@]1(COC(=O)[C@H]2CCC(=O)O2)O[C@@H](c2ccc3c(N)ncnn23)[C@H](O)[C@@H]1O [Compound 25, ((2R,3S,4R,5S)-5-(4-aminopyrrolo[2,1-f][1,2,4]triazin-7-yl)-2-cyano-3,4-dihydroxytetrahydrofuran-2-yl)methyl (R)-5-oxotetrahydrofuran-2-carboxylate]
EC50 [1]: 10.3 µM
EC50 [2, 5]: 6.01 µM
EC50 [3, 6]: 3.13 µM
EC50 [4, 7]: 8.31 µM

CC(C)(C)CC(=O)Nc1ncnn2c([C@@H]3O[C@](C#N)(COC(=O)CC(C)(C)C)[C@@H](O)[C@H]3O)ccc12 [Compound 26, ((2R,3S,4R,5S)-2-cyano-5-(4-(3,3-dimethylbutanamido)pyrrolo[2,1-f][1,2,4]triazin-7-yl)-3,4-dihydroxytetrahydrofuran-2-yl)methyl 3,3-dimethylbutanoate]
EC50 [1]: 46.8 µM
EC50 [2, 5]: 50 µM
EC50 [3, 6]: 50 µM
EC50 [4, 7]: 50 µM

CCC(C)(C)CC(=O)OC[C@@]1(C#N)O[C@@H](c2ccc3c(N)ncnn23)[C@H](O)[C@@H]1O [Compound 27, ((2R,3S,4R,5S)-5-(4-aminopyrrolo[2,1-f][1,2,4]triazin-7-yl)-2-cyano-3,4-dihydroxytetrahydrofuran-2-yl)methyl 3,3-dimethylpentanoate]
EC50 [1]: 12.3 µM
EC50 [2, 5]: 50 µM
EC50 [3, 6]: 50 µM
EC50 [4, 7]: 50 µM

CC(=O)OC[C@@]1(C#N)O[C@@H](c2ccc3c(N)ncnn23)[C@H](OC(C)=O)[C@@H]1OC(C)=O [Compound 28, (2R,3S,4S,5S)-2-(acetoxymethyl)-5-(4-aminopyrrolo[2,1-f][1,2,4]triazin-7-yl)-2-cyanotetrahydrofuran-3,4-diyl diacetate]
EC50 [1]: 15.9 µM
EC50 [2, 5]: 19.8 µM
EC50 [3, 6]: 9.45 µM
EC50 [4, 7]: 23.9 µM

CC(C)(CF)C(=O)OC[C@@]1(C#N)O[C@@H](c2ccc3c(N)ncnn23)[C@H](O)[C@@H]1O [Compound 29, ((2R,3S,4R,5S)-5-(4-aminopyrrolo[2,1-f][1,2,4]triazin-7-yl)-2-cyano-3,4-dihydroxytetrahydrofuran-2-yl)methyl 3-fluoro-2,2-dimethylpropanoate]
EC50 [1]: 28.8 µM
EC50 [2, 5]: 16.9 µM
EC50 [3, 6]: 9.37 µM
EC50 [4, 7]: 22.7 µM

CC(C)C(=O)Nc1ncnn2c([C@@H]3O[C@](C#N)(CO)[C@@H](O)[C@H]3O)ccc12 [Compound 30, N-(7-((2S,3R,4S,5R)-5-cyano-3,4-dihydroxy-5-(hydroxymethyl)tetrahydrofuran-2-yl)pyrrolo[2,1-f][1,2,4]triazin-4-yl)isobutyramide]
EC50 [1]: > 50 µM
EC50 [2, 5]: 36.2 µM
EC50 [3, 6]: 27.5 µM
EC50 [4, 7]: 50 µM

N#C[C@]1(COC(=O)C2CC3(CCC3)C2)O[C@@H](c2ccc3c(N)ncnn23)[C@H](O)[C@@H]1O [Compound 32, ((2R,3S,4R,5S)-5-(4-aminopyrrolo[2,1-f][1,2,4]triazin-7-yl)-2-cyano-3,4-dihydroxytetrahydrofuran-2-yl)methyl spiro[3.3]heptane-2-carboxylate]
EC50 [1]: 16.4 µM
EC50 [2, 5]: 5.14 µM
EC50 [3, 6]: 3.18 µM
EC50 [4, 7]: 4.56 µM

CC1(CC(=O)OC[C@@]2(C#N)O[C@@H](c3ccc4c(N)ncnn34)[C@H](O)[C@@H]2O)CCC1 [Compound 33, ((2R,3S,4R,5S)-5-(4-aminopyrrolo[2,1-f][1,2,4]triazin-7-yl)-2-cyano-3,4-dihydroxytetrahydrofuran-2-yl)methyl 2-(1-methylcyclobutyl)acetate]
EC50 [1]: 23.4 µM
EC50 [2, 5]: 20.8 µM
EC50 [3, 6]: 35.1 µM
EC50 [4, 7]: 50 µM

[H]/N=c1/c2ccc([C@@H]3O[C@](C#N)(CO)[C@@H](O)[C@H]3O)n2ncn1COC(=O)C(C)C [Compound 34, (7-((2S,3R,4S,5R)-5-cyano-3,4-dihydroxy-5-(hydroxymethyl)tetrahydrofuran-2-yl)-4-iminopyrrolo[2,1-f][1,2,4]triazin-3(4H)-yl)methyl isobutyrate]
EC50 [1]: > 50 µM
EC50 [2, 5]: 50 µM
EC50 [3, 6]: 28.7 µM
EC50 [4, 7]: 50 µM

CCC(C)(C)C(=O)OC[C@@]1(C#N)O[C@@H](c2ccc3c(N)ncnn23)[C@H](O)[C@@H]1O [Compound 35, ((2R,3S,4R,5S)-5-(4-aminopyrrolo[2,1-f][1,2,4]triazin-7-yl)-2-cyano-3,4-dihydroxytetrahydrofuran-2-yl)methyl 2,2-dimethylbutanoate]
EC50 [1]: 24.4 µM
EC50 [2, 5]: 24.6 µM
EC50 [3, 6]: 19.2 µM
EC50 [4, 7]: 48.2 µM

CC(C)(C)CCC(=O)OC[C@@]1(C#N)O[C@@H](c2ccc3c(N)ncnn23)[C@H](O)[C@@H]1O [Compound 36, ((2R,3S,4R,5S)-5-(4-aminopyrrolo[2,1-f][1,2,4]triazin-7-yl)-2-cyano-3,4-dihydroxytetrahydrofuran-2-yl)methyl 4,4-dimethylpentanoate]
EC50 [1]: 11.8 µM
EC50 [2, 5]: 6.51 µM
EC50 [3, 6]: 3.1 µM
EC50 [4, 7]: 8.03 µM

CC[C@@H](C)C(=O)OC[C@@]1(C#N)O[C@@H](c2ccc3c(N)ncnn23)[C@H](O)[C@@H]1O [Compound 37, ((2R,3S,4R,5S)-5-(4-aminopyrrolo[2,1-f][1,2,4]triazin-7-yl)-2-cyano-3,4-dihydroxytetrahydrofuran-2-yl)methyl (R)-2-methylbutanoate]
EC50 [1]: 14.8 µM
EC50 [2, 5]: 11.9 µM
EC50 [3, 6]: 5.71 µM
EC50 [4, 7]: 9.78 µM

N#C[C@]1(COC(=O)Cc2ccccc2)O[C@@H](c2ccc3c(N)ncnn23)[C@H](O)[C@@H]1O [Compound 38, ((2R,3S,4R,5S)-5-(4-aminopyrrolo[2,1-f][1,2,4]triazin-7-yl)-2-cyano-3,4-dihydroxytetrahydrofuran-2-yl)methyl 2-phenylacetate]
EC50 [1]: 18.9 µM
EC50 ([2]; HRV14, H1-HeLa): 6.25 µM
EC50 ([3]; HRV1B, H1-HeLa): 3.12 µM
EC50 ([4]; HRV16, H1-HeLa): 8.44 µM
